Source: the NIST ThermoML archive (doi:10.1021/je060170c)

Assay: xn = mol fraction of the nth substance listed
Settings: 101 kPa, Liquid; for viscosity: Anton Paar Stabinger viscometer

COc1ccccc1 [anisole] + Cc1cccc(C)c1
Settings	mass density [kg/m3]	speed of sound [m/s]	viscosity [mPa·s]
288.15 K, x1 = 0.1144	882.011	1369.2	0.696
288.15 K, x1 = 0.2566	899.519	1380.5	0.745
288.15 K, x1 = 0.3821	915.327	1390.9	0.799
288.15 K, x1 = 0.5034	930.924	1401	0.856
288.15 K, x1 = 0.6546	950.873	1414.1	0.933
288.15 K, x1 = 0.7535	964.193	1424	0.995
288.15 K, x1 = 0.8432	976.464	1432	1.049
288.15 K, x1 = 0.9133	986.213	1439.3	1.103
288.15 K, x1 = 0.9576	992.455	1445.2	1.149
288.15 K, x1 = 1	998.44	1449.1	1.188
293.15 K, x1 = 0.1144	877.742	1351	0.645
293.15 K, x1 = 0.2566	895.185	1362.2	0.688
293.15 K, x1 = 0.3821	910.905	1372.1	0.734
293.15 K, x1 = 0.5034	926.441	1381.4	0.783
293.15 K, x1 = 0.6546	946.321	1393.9	0.851
293.15 K, x1 = 0.7535	959.605	1402.8	0.908
293.15 K, x1 = 0.8432	971.843	1411.1	0.958
293.15 K, x1 = 0.9133	981.575	1418.4	1.008
293.15 K, x1 = 0.9576	987.755	1423.6	1.051
293.15 K, x1 = 1	993.651	1428.5	1.084
298.15 K, x1 = 0.1144	873.473	1328.5	0.607
298.15 K, x1 = 0.2566	890.874	1339.2	0.647
298.15 K, x1 = 0.3821	906.561	1349.8	0.687
298.15 K, x1 = 0.5034	922.056	1360.1	0.734
298.15 K, x1 = 0.6546	941.9	1373.5	0.798
298.15 K, x1 = 0.7535	955.192	1382.5	0.852
298.15 K, x1 = 0.8432	967.423	1391	0.899
298.15 K, x1 = 0.9133	977.136	1398.1	0.947
298.15 K, x1 = 0.9576	983.283	1403.1	0.988
298.15 K, x1 = 1	989.15	1408	1.017
303.15 K, x1 = 0.1144	869.172	1308	0.574
303.15 K, x1 = 0.2566	886.499	1318.7	0.604
303.15 K, x1 = 0.3821	902.126	1328.8	0.639
303.15 K, x1 = 0.5034	917.578	1339.1	0.677
303.15 K, x1 = 0.6546	937.368	1352.6	0.733
303.15 K, x1 = 0.7535	950.619	1362	0.782
303.15 K, x1 = 0.8432	962.844	1371	0.824
303.15 K, x1 = 0.9133	972.502	1378.3	0.868
303.15 K, x1 = 0.9576	978.641	1383.1	0.905
303.15 K, x1 = 1	984.372	1387.7	0.931
